Patent US20240066086A1, “Topical Hyperpigmentation Compositions and Method of Use” (Allergan Sales, LLC, priority 2022, published 2024)

Legend:
Type in all cases: cell-based
[1] = system: 3-D dark pigmented epidermis model Melanoderm™ MEL0300B tissue; assay: in vitro melanogenesis in 3-D pigmented epidermis model
primary human melanocyes = assay: in vitro melanogenesis in primary melanocytes
[2] = system: human melanoma cell line MNT-1 cells; assay: in vitro melanogenesis / melanin production in MNT-1 cells
Experimental: In the MNT-1 cell in vitro tests, neferine and liensinine reduced melanin production after seven days by at least 50%, 60%, 70%, 80% or greater at concentrations ranging from 0.1 μM to 5 μM.

Measured: inhibition of melanogenesis

COc1ccc(C[C@@H]2c3cc(Oc4cc(C[C@@H]5c6cc(OC)c(OC)cc6CCN5C)ccc4O)c(OC)cc3CCN2C)cc1 [Neferine, neferine]
significantly inhibit melanogenesis: all assays above

COc1cc2c(cc1OC)[C@@H](Cc1ccc(O)c(Oc3cc4c(cc3OC)CCN(C)[C@@H]4Cc3ccc(O)cc3)c1)N(C)CC2 [liensinine]
significantly inhibit melanogenesis: all assays above
